Read-outs that look alike come from different tables or passages of the source. A value given as a limit tells only on which side of the number the result lay.

Experiment [1] has as its system mast cell activation induced by FcγR cross-linking (CHMC cells). Put plainly: LD Tryptase CHMC: tryptase release assay. Type of experiment: cell-based, Human. Conditions: for IC50: Mast cell; for potency compared with the control, whole cell assay: vs control compound. The method, then:
Compounds are assayed for inhibition of mast cell activation induced by FcγR cross-linking by measuring the activity of tryptase released upon degranulation as follows:
Human mast cells are cultured and differentiated from CD38-negative progenitor cell as described in U.S. Patent Publication No. 2005/0234049, which is hereby incorporated herein by reference in its entirety. For example, 65 μL of various concentrations of the test compound are prepared in MT (137 mM NaCl, 2.7 mM KCl, 1.8 mM CaCl2, 1.0 mM MgCl2, 5.6 mM Glucose, 20 mM Hepes (pH 7.4), 0.1% Bovine Serum Albumin, (Sigma, #A4503)) containing 2% MeOH and 1% DMSO, or control buffer are added to duplicate 96-well V-bottom plates. Pelleted and re-suspended (in warm MT) CHMC cells (65 μL) are added to each 96-well plate, mixed and incubated for 1 hour at 37° C. […] MT (25 μL) is added to control wells. After a 60-minute incubation at 37° C., cells and cell debris were pelleted by centrifugation at 1000 rpm for 10 min and tryptase and leukotriene C4 levels are measured.
To measure tryptase levels, 25 μL of supernatant from each well is transferred to a fresh 96-well black bottom plate, to which 100 μL of fresh tryptase substrate solution [(Z-Ala-Lys-Arg-AMC2TFA; Enzyme Systems Products, #AMC-246)]1:2000 in tryptase assay buffer [0.1M Hepes (pH 7.5), 10% w/v Glycerol, 10 μM Heparin (Sigma H-4898) 0.01% NaN3] is added. After 30 minutes incubation at room temperature, the optical density of the plates is measured at 355 nm/460 nm on a spectrophotometric plate reader.
Compounds of the disclosure were assayed for their ability to inhibit mast cell activation induced by FcγR cross-linking by measuring the activity of tryptase released upon degranulation.

Experiment [2] concerns the target T1, Ret kinase in SK-N-SH brain neuroblastoma cells (Homo sapiens, UniProt P07949).
T1 construct: Ret is immunoprecipitated from the detergent-soluble cell lysate; host or cells: SK-N-SH brain neuroblastoma cells
Put plainly: Cellular Ret Assay. Type of experiment: cell-based. Conditions: GDNF, Table 2, unit inferred.
Description: Compounds are tested for the ability to inhibit Ret kinase in cells. SK-N-SH brain neuroblastoma cells (ATCC, #HTB-1, maintained and plated in DMEM (Cellgro Mediatech, #10-013-CV) with 10% fetal bovine serum (JRH, #12106-500M) are seeded in 10 cm plates in 10 mL of culture media and allowed to reach 85% confluence by the next day. The medium is replaced with 5 mL of DMEM (without fetal bovine serum) containing DMSO or test compound (final 0.1% DMSO), and incubated at 37° C./5% CO2 for 1 hour. SK-N-SH cells are then stimulated with 50 ng/mL of human recombinant GDNF (Peprotech, #450-10) for 10 minutes. Cells are washed once with cold 1×PBS and lysed with 500 μL of 1% NP-40 lysis buffer (Tris HCl pH 7.4 with 150 mM NaCl, 1 mM NaVn, 1% Nonidet-P40 (Fisher Scientific, #PI-28324), protease inhibitor tablet (Roche, 1697498)). […]
After washing with 1×TBST for 2 hours with five buffer changes, the membrane is probed with Goat anti-Mouse IgG HRP antibody (Jackson Immunoresearch Labs, #115-035-146, 1:2000) in 1×TBST+5% milk for 1 hour at room temperature. The membrane is washed with TBST for 2 hours with five buffer changes, treated with ECL plus Western Blot detection reagent (GE Healthcare, formerly Amersham, #RPN2132) according to the instruction manual, and the chemiluminescent signal is detected on Kodak Biomax MR Film (VWR, # IB8701302).

Experiment [3] relates to allergen induced basophil degranulation. The experiment can be described thus: CD63 Assay (BASOTEST, FACS, whole blood, anti-IgE). Type of experiment: cell-based. The following applies: for potency compared with the control in the presence of whole blood (CD63 assay): vs control compound; for IC50: whole blood, anti-IgE, Table 2, unit inferred. The method, then:
Compounds are tested for the ability to inhibit allergen induced basophil degranulation. The BASOTEST® kit (Orpegen Pharma GmbH, #10-0500) is used in this assay. In a 5 mL FACS tube 105 μL of Heparinized whole blood, 25 μL of test compound solution (in DMSO) are incubated at room temperature for 30-60 minutes. To induce degranulation, 20 μL stimulation buffer (Reagent B) is added, and the tube is incubated for 10 min in a 37° C. water bath. Then, 100 μL of anti-IgE (2 μg/mL) is added, or 100 µL of washing solution (reagent A) is added (i.e., as a negative control). The tube is incubated for 20 min in a 37° C. water bath. Degranulation is then stopped by incubation on ice for 5 min. 20 μL of staining reagent (reagent F) is added, and the tube is incubated on ice in the dark for 20 min. 2 mL of room temperature lysing solution is added, and the tube is incubated at room temperature for 10 min. The tubes are spun down at 4° C. for 5 min at 1600 rpm, and the supernatant is discarded. 3 mL washing solution (reagent A) is added, and the tubes spun down at 4° C. for 5 min at 1600 rpm, and the supernatant is discarded. 200 μL washing solution is added to the remaining cell pellet, and the samples are incubated on ice in the dark until analysis (within 2 h). Analysis is performed using flow cytometry at 488 nm using the conditions specified in the BASOTEST® kit instructions to determine percentage of activated basophilic granulocytes.

The mark [4] stands for this setting: Homo sapiens, Table 2, unit inferred, read-out: LD Tryptase CHMC.
Setting [5] is: Homo sapiens, read-out: IC50 value (tryptase assay).
The mark [6] stands for this setting: human mast cells, anti-IgG stimulation, read-out: IC50 (LD Tryptase CHMC).

T1 sequence (P07949 29-1114): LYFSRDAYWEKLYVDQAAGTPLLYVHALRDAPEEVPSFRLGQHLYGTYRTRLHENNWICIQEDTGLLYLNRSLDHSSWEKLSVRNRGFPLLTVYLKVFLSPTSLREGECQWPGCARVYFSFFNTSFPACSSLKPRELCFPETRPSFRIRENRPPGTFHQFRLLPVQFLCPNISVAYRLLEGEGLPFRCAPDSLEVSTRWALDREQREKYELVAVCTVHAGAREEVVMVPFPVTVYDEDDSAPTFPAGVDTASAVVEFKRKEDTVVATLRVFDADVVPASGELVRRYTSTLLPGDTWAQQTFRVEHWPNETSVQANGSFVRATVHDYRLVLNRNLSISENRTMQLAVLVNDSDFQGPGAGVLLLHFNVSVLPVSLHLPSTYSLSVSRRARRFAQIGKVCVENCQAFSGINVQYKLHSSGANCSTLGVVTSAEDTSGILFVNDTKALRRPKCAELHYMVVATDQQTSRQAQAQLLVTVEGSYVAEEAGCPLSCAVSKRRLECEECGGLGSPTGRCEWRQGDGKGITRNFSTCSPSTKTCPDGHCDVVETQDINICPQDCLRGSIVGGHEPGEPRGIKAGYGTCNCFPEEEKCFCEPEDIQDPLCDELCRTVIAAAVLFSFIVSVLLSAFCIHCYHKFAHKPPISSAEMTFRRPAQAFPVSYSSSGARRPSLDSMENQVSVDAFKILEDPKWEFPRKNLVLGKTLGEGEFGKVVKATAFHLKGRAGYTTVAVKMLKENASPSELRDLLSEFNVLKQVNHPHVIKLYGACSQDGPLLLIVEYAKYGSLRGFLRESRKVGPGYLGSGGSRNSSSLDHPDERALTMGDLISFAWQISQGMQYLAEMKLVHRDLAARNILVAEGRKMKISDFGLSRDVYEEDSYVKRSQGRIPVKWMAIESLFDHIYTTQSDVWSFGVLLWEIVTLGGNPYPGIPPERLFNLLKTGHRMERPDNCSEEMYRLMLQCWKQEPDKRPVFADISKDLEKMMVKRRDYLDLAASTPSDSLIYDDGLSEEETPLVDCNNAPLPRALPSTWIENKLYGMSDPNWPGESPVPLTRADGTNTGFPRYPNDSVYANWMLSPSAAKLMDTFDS

As for `CC1(C)Oc2ccc(Nc3nc(Nc4ccc(N5CCOCC5)cc4)ncc3F)nc2NC1=O` [Compound 3, N4-(2,2-Dimethyl-3-oxo-4H-5-pyrido[1,4]oxazin-6-yl)-5-fluoro-N2-(4-morpholinophenyl)-2,4-pyrimidinediamine], the IC50 in experiment [1] (setting [4]) is 80 nM; in experiment [1] (setting [5]) it was less than 100 nM; in experiment [1] (setting [6]) it was 80 nM; in experiment [2], more than 1000 nM; in experiment [3], 300 nM. Moreover, the “potency compared with the control, whole cell assay” value in experiment [1] is given as “somewhat less potent than the control”. For the same compound, the “potency compared with the control in the presence of whole blood (CD63 assay)” value in experiment [3] is given as “more potent”.
As for `CC1(C)Oc2ccc(Nc3nc(Nc4ccc(N5CCOCC5)nc4)ncc3F)nc2NC1=O` [Compound 1, N4-(2,2-Dimethyl-3-oxo-4H-5-pyrido[1,4]oxazin-6-yl)-5-fluoro-N2-[6-morpholinopyridin-3-yl]-2,4-pyrimidinediamine], the IC50 in experiment [1] (setting [4]) was 90 nM; in experiment [1] (setting [5]) it was less than 100 nM; in experiment [1] (setting [6]), 90 nM; in experiment [2] it was more than 5000 nM; in experiment [3] it was 250 nM. For the same compound, the “potency compared with the control, whole cell assay” value in experiment [1] was “somewhat less potent than the control”. The “potency compared with the control in the presence of whole blood (CD63 assay)” value in experiment [3] is “more potent”.

These data come from patent US8642593B2, “2,4-pyrimidinediamine compounds and prodrugs and their uses” (Rigel Pharmaceuticals, Inc., priority 2009, dated 2014).
